BindingDB's records for doi:10.1021/cb800306y (Stony Brook University, 2009)
pKi: −log10 of the molar value.

Key:
[1] = target: T1, Enoyl-[acyl-carrier-protein] reductase [NADH] (Francisella tularensis subsp. novicida (strain U112), UniProt A0Q794); assay: Enzyme Inhibition Assay; details: pH 8; 25 °C
T1 sequence (A0Q794 whole entry): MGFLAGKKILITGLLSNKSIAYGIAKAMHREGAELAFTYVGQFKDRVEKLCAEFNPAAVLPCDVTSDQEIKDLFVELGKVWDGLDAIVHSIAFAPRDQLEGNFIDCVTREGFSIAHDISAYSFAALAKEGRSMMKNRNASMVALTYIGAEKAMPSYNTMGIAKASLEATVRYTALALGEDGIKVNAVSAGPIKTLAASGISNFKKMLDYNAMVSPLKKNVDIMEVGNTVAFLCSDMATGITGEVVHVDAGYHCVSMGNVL
From the text: Inhibition constant binding to E-NAD+

[2] = target: T1, Enoyl-[acyl-carrier-protein] reductase [NADH]; assay: Enzyme Inhibition Assay; details: pH 8; 25 °C; remark: listed apart in the source
From the text: Inhibition constant binding to E-NADH

SMILES | pKi [1] | pKi [2]
Oc1cc(Cl)ccc1Oc1ccc(Cl)cc1Cl | 10.29 | 5.30
CCCCCCCCc1ccc(Oc2ccccc2)c(O)c1 [5-Octyl-2-phenoxy-phenol] | 7.63 | 6.72
CCCCCCc1ccc(Oc2ccccc2)c(O)c1 [5-hexyl-2-phenoxyphenol] | 8.57 | 6.48
CCc1ccc(Oc2ccccc2)c(O)c1 [PT01] | 8.68 | 6.51
CCCc1ccc(Oc2ccccc2)c(O)c1 [PT02] | 9.36 | 6.16
Oc1cc(Cl)ccc1Oc1ccccc1 [PT52] | 8.72 | 6.51
Cc1ccc(Oc2ccccc2)c(O)c1 [PT53] | 8.72 | 6.61
Oc1cc(F)ccc1Oc1ccccc1 [PT55] | 6.54 | 
